Measured values taken from US12508276B2, “Use of ginsenoside M1 for treating Huntington's disease” (priority 2018, dated 2025).

Legend:
[1] = test system: ATM; experiment: Phosphorylation level of ATM by Western blot; type: cell-based, mouse; conditions: STHdh^Q109 cells, 24 h, vs vehicle-treated STHdh^Q109 cells, FIG. 4
Procedure: ATM is activated by DNA damage and plays important role in the phosphorylation of AMPK. To investigate whether ginsenoside M1 inhibited ATM activation, […]7 and […] cells were treated with 10 and 30 μM ginsenoside M1 or vehicle (DMSO) for 24 h. The phosphorylation level of ATM was measured by Western blot.

[2] = test system: STHdh^Q109 cells; experiment: MTT reduction assay, survival rate of mHtt expression cells; type: cell-based, mouse; conditions: 24 h
From the text: Conditionally immortalized wild-type […]7 striatal neuronal progenitor cells expressing endogenous normal htt (referred to as wild-type striatal cells), and homozygous mutant […] striatal neuronal progenitor cells from homozygous […] knock-in mice expressing mutant htt with 109 glutamines (referred to as mutant striatal […] and […] cells were generous gifts from Dr. Elena Cattaneo and […] (Department of pharmacological sciences and centre for stem cell research, University of Milano, Italy). These cells were maintained in an incubation chamber at 33° C. in Dulbecco's modified Eagle's medium (DMEM) supplemented with 10% fetal bovine serum (FBS). […]7 and […] cells were treated with 30 μM ginsenoside M1 or vehicle (DMSO) for 24 h. […]7 and […] cells death was quantified by the MTT reduction assay. […] At the end of experiments, cells were incubated in culture medium with 0.5 mg/ml MTT at 37° C. for 2 h. The culture medium was then replaced with DMSO to dissolve the MTT formazan precipitates, which was followed by the measurement of the absorbance at 570 nm using a microplate reader (OPTImax tunable plate reader, Molecular Device, Sunnyvale, CA, USA). The survival rate of the indicated cells was normalized to those survival rate of untreated (vehicle-treated) […]7 cells. As shown in the FIG. 1A, the survival rate of untreated (vehicle-treated) […] cells was lower than that of untreated (vehicle-treated) […]7 cells. […] To confirm the cyto-protective effect of ginsenoside […] cells were treated with 1, 10 and 30 μM ginsenoside M1 or vehicle (DMSO) for 24 h. […] The results are express as the means±SEM of triplicate samples.

[3] = test system: p53; experiment: Phosphorylation level of p53 by Western blot; type: cell-based, mouse; conditions: STHdh^Q109 cells, 24 h, vs vehicle-treated STHdh^Q109 cells, FIG. 6
Procedure: p53 plays a role in the regulation of the cell cycle and apoptosis. p53 becomes activated in response to DNA damage and oxidative stress. To investigate whether ginsenoside M1 inhibited the phosphorylation level of […]7 and […] cells were treated with 10 and 30 μM ginsenoside M1 or vehicle (DMSO) for 24 h. The phosphorylation level of p53 was measured by Western blot.

[4] = test system: γH2AX; experiment: Expression level of γH2AX by Western blot; type: cell-based, mouse; conditions: STHdh^Q109 cells, 24 h, vs vehicle-treated STHdh^Q109 cells, FIG. 5
Procedure: ATM is now known to regulate DNA repair through the activation of γH2AX. To investigate whether ginsenoside M1 inhibited the expression level of γH2AX, […]7 and […] cells were treated with 10 and 30 μM ginsenoside M1 or vehicle (DMSO) for 24 h. The expression level of γH2AX was measured by Western blot.

[5] = test system: STHdh^Q109 cells; experiment: Cellular ROS production (H2DCFDA fluorescence); type: cell-based, mouse; conditions: 1 h, FIG. 2
Procedure: Oxidative stress is one of the important events triggers cell death in STHdh^Q109 cells. To investigate whether ginsenoside M1 inhibited cell death of STHdh^Q109 cells by reducing oxidative stress, STHdh^Q109 cells were treated with 1, 10 and 30 μM ginsenoside M1 or vehicle (DMSO) in the presence of 10 μM intracellular ROS indicator fluorescent probe 2,7-dichlorodihydrofluorescein diacetate (H2DCFDA; Molecular Probes, Inc., Eugene, Oregon, USA) for 1 h. Cellular ROS contents were measured by detecting the fluorescence intensity (Excitation/Emission: 488 nm/510 nm) using a fluorescence plate reader (Fluoroskan Ascent; Thermo Electron Corporation, Woburn, MA, USA). […] The results are express as the means±SEM of triplicate samples. Multiple groups will analyze with one-way analysis of variance (ANOVA), follow by a post-hoc Student-Newman-Keuls test. p value of <0.05 will considered significant. ^ap<0.05: compared to untreated (vehicle-treated) STHdh^Q109 cells.

[6] = test system: R6/2 mice; experiment: Motor coordination, rotarod apparatus assay in HD disease mice; type: in vivo, mouse; conditions: 30 mg/kg oral daily for 4 weeks from age of 7 weeks, rotarod 12 rpm, 2 min, FIG. 7
Procedure: (§1) Mice were treated daily with ginsenoside M1 (30 mg/kg of body weight, oral administration) or vehicle for 4 weeks from the age of 7 weeks. Motor coordination was assessed using a rotarod apparatus assay (UGO BASILE, Comerio, Italy) at a constant speed (12 rpm) over a period of 2 min. […] Results were expressed as means±SEM. Multiple groups were analyzed by one-way analysis of variance (ANOVA) followed by a post hoc Student-Newman-Keuls test. ^ap<0.05: between WT and R6/2-vehicle mice. ^bp<0.05: compared to R6/2-vehicle mice.

[7] = test system: mHtt aggregate; experiment: mHtt aggregates in striatal lysates, filter retardation assay; type: in vivo, mouse; conditions: R6/2 mice, 30 mg/kg oral daily for 4 weeks from age of 7 weeks, FIG. 9
Procedure: Mice were treated daily with ginsenoside M1 (30 mg/kg of body weight, oral administration) or vehicle for 4 weeks from the age of 7 weeks. The amount of mHtt aggregates in striatal lysates was analyzed by a filter retardation assay. Brain tissues were suspended and homogenized in ice-cold THE buffer, mixed with 2% SDS. Samples were first passed through OE66 membrane filters ([…] pore size; Whatman Schleicher and Schuell, Middlesex, UK) in a slot-blot manifold (Bio-Rad, Irvine, CA, USA). Insoluble aggregates retained on the filters were detected using an anti-Htt antibody.

[8] = test system: R6/2 mice; experiment: Lifespan of HD disease mice; type: in vivo, mouse; conditions: 30 mg/kg oral daily for 4 weeks from age of 7 weeks, FIG. 8
Procedure: as §1, with “weeks, and the lifespan of mice” for “weeks. Motor coordination”, “determined.” for “assessed using a rotarod apparatus assay (UGO BASILE, Comerio, Italy) at a constant speed (12 rpm) over a period of 2 min.”

[9] = test system: AMPK; experiment: Phosphorylation level of AMPK by Western blotting; type: cell-based, mouse; conditions: STHdh^Q109 cells, 24 h, vs vehicle-treated STHdh^Q109 cells, FIG. 3
Procedure: Activation of AMPK promotes the pathogenesis of HD [37]. To investigate whether ginsenoside M1 inhibited AMPK activation, […]7 and […] cells were treated with 10 and 30 μM ginsenoside M1 or vehicle (DMSO) for 24 h. The phosphorylation level of AMPK was measured by Western blotting.

In the case of `CC(C)=CCC[C@](C)(O[C@@H]1O[C@H](CO)[C@@H](O)[C@H](O)[C@H]1O)[C@H]1CC[C@]2(C)[C@@H]1[C@H](O)C[C@@H]1[C@@]3(C)CC[C@H](O)C(C)(C)[C@@H]3CC[C@]12C` [ginsenoside M1, 20-O-β-D-glucopyranosyl-20(S)-protopanaxadiol], the “phosphorylation level of ATM” value ([1]; 10 μM) is reported as “significantly reduced”, the “phosphorylation level of ATM” value ([1]; 30 μM) is reported as “significantly reduced” and the survival rate ([2]; 10 μM, FIG. 1B) is reported as “significantly increased”. For the same molecule, the survival rate ([2]; 30 μM, FIG. 1A) was “significantly increased”, the survival rate ([2]; 30 μM, FIG. 1B) was “significantly increased” and the “phosphorylation level of p53” value ([3]; 10 μM) was “significantly reduced”. The “phosphorylation level of p53” value ([3]; 30 μM) was “significantly reduced”, the “expression level of γH2AX” value ([4]; 10 μM) was “significantly reduced” and the “expression level of γH2AX” value ([4]; 30 μM) was “significantly reduced”. For the same molecule, the ROS production ([5]; 10 μM) was “significantly reduced”, the ROS production ([5]; 30 μM) was “significantly reduced” and the motor coordination [6] was “increased significantly”. For the same molecule, the “mHtt aggregate formation in the striatum” value [7] was “reduced”, the lifespan [8] was “significantly prolonged” and the “phosphorylation level of AMPK” value ([9]; 10 μM) was “significantly reduced”. For the same molecule, the “phosphorylation level of AMPK” value ([9]; 30 μM) was “significantly reduced”.
